From patent publication US7999119B2, “Compounds having CRTH2 antagonist activity” (Oxagen Limited, priority 2006, dated 2011)
Where “and” joins values, the source holds several entries; their conditions need not be identical. Equal entries are not always repeated. Where two headings read alike, the source gives them in different places.

Assays:
[1] = system: PGD2 induced eosinophil shape change; assay: Human whole blood eosinophil shape change assay; format: cell-based; details: Homo sapiens, Eosinophil
Protocol: Human Whole Blood Eosinophil Shape Change Assay
Compounds 1 to 3 were assayed for their effect on PGD2 induced eosinophil shape change and were compared with Comparator Compounds A to G.
Shape Change Assay in Whole Blood
Compounds (1 μl, 200× final concentration) were added directly to 200 μl whole blood, mixed well and incubated for 15 min, 37° C., 5% CO2. After this time, cell shape was fixed by addition of 300 μl Cytofix™ buffer (BD Biosciences), 15 min on ice. 10 ml RBC lysis buffer was added to the fixed cells, incubated 5 min, at room temperature and centrifuged, 300×g for 5 min. Supernatant (containing lysed red cells) was removed and the lysis step was repeated. Leukocytes were resuspended in 250 μl RPMI/10% FCS and shape change analysed by FACS. Eosinophils were gated out based on their autofluorescence and 2000 eosinophil events were counted per sample. Data were analysed in triplicate.

[2] = Pharmacokinetics following oral administration in the rat; format: in vivo
Protocol: Investigation of Pharmacokinetics of Compounds of General Formula (I) Following Oral Administration in the Rat
Rats were weighed on the day of dosing.
The test material was prepared as a 0.3 mg/mL suspension in 1% carboxy-methyl-cellulose (CMC).
Three groups of 3 rats were dosed as follows:
Doses were administered as a single oral dose using a gavage tube at a constant dose volume of 10 mL/kg.
At each sampling time point blood samples (approximately 0.3 mL) was taken from a catheter inserted into a lateral tail vein prior to the start of the experiment. The final blood sample (approximately 2 mL) from each animal was taken by cardiac puncture under isoflurane anaesthesia following which the animal was killed by exsanguination. Blood samples were taken into individual heparinised containers. Blood samples were collected at the following times post-dose:
Following collection, the blood samples were centrifuged (approximately 10,000×g, 2 min at 4° C.) and the plasma stored as one aliquot at approximately −20° C. pending analysis of drug concentrations by LC-MS/MS.
The plasma samples were analysed for test material concentrations at BioDynamics using an LC-MS/MS method developed at BioDynamics.

[3] = system: DK-PGD2-induced blood eosinophilia; assay: Inhibition of DK-PGD2-induced blood eosinophilia in rats; format: in vivo, rat; details: female rats, oral dosing 30 min before 10 μg DK-PGD2 intracardiac; ED50 from dose-response curve; the values are: ED50
Protocol: Evaluation of Compounds of General Formula (I) as Inhibitors of 13,14-dihydro-15-keto prostaglandin D2 (DK-PGD2)-Induced Blood Eosinophilia in Rats
The test compound was dissolved in DMSO and diluted with water to give a final dosing volume of 2 ml/kg.
Female rats (175-250 g; UH colony) were dosed orally with test compound (or vehicle).
30 min after dosing all animals were anaesthetised with isoflurane.
Following induction of anaesthesia, animals receive an intracardiac injection of 10 μg DK-PGD2 in 0.3 ml heparinised (10 U/ml) saline. Control animals received an injection of 0.3 ml heparinised saline.
60 min after the intracardiac injection, animals were injected with an overdose of pentobarbitone sodium and a blood sample was taken (into heparin) by cardiac puncture while the rat was anaesthetised but not dead.
An aliquot of blood (100 μl) was added to Turk's solution and the total leukocyte count determined with a haemocytometer.
A further aliquot of blood (500 μl) was mixed with an equal volume of 4% Dextran (mw 500,000) and the erythrocytes allowed to settle. A cytospin preparation was made from the resulting leukocyte rich fraction.
Cytospin preparations were fixed with methanol (5 min) and stained with May-Grunwald (5 min) and Giemsa (15 min) stains. Finally cytospins were washed in phosphate buffer (pH6.8) and air dried.
Differential leukocyte counts were obtained from the cytospin preparations.
Blood eosinophil numbers were determined from the total leukocyte count and the percentage eosinophils (differential count).
Because it was impractical to generate sufficient data in any given experiment, data were obtained over a number of replicate experiments. Data from these replicate experiments were pooled, to provide at least 5 animals in each group and a dose-response curve fitted following a significance test (Mann Whitney) to determine whether or not DK-PGD2 caused a significant increase in blood eosinophils (GraphPad, Prism). A difference between groups was taken to be significant when P<0.05. ED50 values were calculated from the dose-response curve.

[4] = rat, 3 mg/kg p.o, individual male animals, 3 mg/kg

For `Cc1c(Cc2ccc(S(C)(=O)=O)cc2)c2cc(F)ccc2n1CC(=O)O` [Compound B, [5-Fluoro-3-(4-methanesulfonyl-benzyl)-2-methyl-indol-1-yl]-acetic acid, reference compound], which IC50 ([1]; 10 nm PGD2-induced eosinophil shape change, human whole blood, read-out: Whole Blood IC50) is on record?
The IC50 was 8 nM.

What about the IC50 ([1]; Table 12 summary of whole blood eosinophil shape change IC50, read-out: IC50 (μmol)) of the same molecule?
Its IC50 is 8 nM.

And the IC50 ([1]; whole blood eosinophil shape change IC50 converted to ng/mL, read-out: IC50)?
The IC50 was 3 ng/mL.

And the IC50 ([1]; read-out: IC50 in the whole blood eosinophil shape change assay)?
Its IC50 is 8 nM.

What about the concentration at 0.25 h ([2]; male, rat, plasma, po, 3 mg/kg, rat, 3 mg/kg oral, 0.25 h, individual male animals, read-out: Concentration in Blood) of the same molecule?
Its concentration at 0.25 h is 91.8 ng/mL.

And the concentration at 0.25 h ([2]; male, rat, plasma, po, 3 mg/kg, rat, 3 mg/kg oral, 0.25 h, mean, read-out: Concentration in Blood, Mean)?
Its concentration at 0.25 h is 87.6 ng/mL.

And the concentration at 0.5 h ([2]; male, rat, plasma, po, 3 mg/kg, rat, 3 mg/kg oral, 0.5 h, individual male animals, read-out: Concentration in Blood)?
Its concentration at 0.5 h is 121 ng/mL.

And the concentration at 0.5 h ([2]; male, rat, plasma, po, 3 mg/kg, rat, 3 mg/kg oral, 0.5 h, mean, read-out: Concentration in Blood, Mean)?
The concentration at 0.5 h was 140 ng/mL.

And the concentration at 1 h ([2]; male, rat, plasma, po, 3 mg/kg, rat, 3 mg/kg oral, 1 h, individual male animals, read-out: Concentration in Blood)?
Its concentration at 1 h is 252 ng/mL.

And the concentration at 1 h ([2]; male, rat, plasma, po, 3 mg/kg, rat, 3 mg/kg oral, 1 h, mean, read-out: Concentration in Blood, Mean)?
The concentration at 1 h was 255 ng/mL.

And the concentration at 2 h ([2]; male, rat, plasma, po, 3 mg/kg, rat, 3 mg/kg oral, 2 h, mean, read-out: Concentration in Blood, Mean)?
The concentration at 2 h was 381 ng/mL.

And the concentration at 4 h ([2]; male, rat, plasma, po, 3 mg/kg, rat, 3 mg/kg oral, 4 h, mean, read-out: Concentration in Blood, Mean)?
Its concentration at 4 h is 283 ng/mL.

And the concentration at 6 h ([2]; male, rat, plasma, po, 3 mg/kg, rat, 3 mg/kg oral, 6 h, mean, read-out: Concentration in Blood, Mean)?
Its concentration at 6 h is 182 ng/mL.

What about the concentration at 8 h ([2]; male, rat, plasma, po, 3 mg/kg, rat, 3 mg/kg oral, 8 h, mean, read-out: Concentration in Blood, Mean) of the same molecule?
The concentration at 8 h was 114 ng/mL.

What about the concentration at 12 h ([2]; male, rat, plasma, po, 3 mg/kg, rat, 3 mg/kg oral, 12 h, mean, read-out: Concentration in Blood, Mean) of the same molecule?
The concentration at 12 h was 27.3 ng/mL.

And the concentration at 24 h ([2]; male, rat, plasma, po, 3 mg/kg, rat, 3 mg/kg oral, 24 h, individual male animals, read-out: Concentration in Blood)?
Its concentration at 24 h is 0 ng/mL.

What about the concentration at 24 h ([2]; male, rat, plasma, po, 3 mg/kg, rat, 3 mg/kg oral, 24 h, mean, read-out: Concentration in Blood, Mean) of the same molecule?
Its concentration at 24 h is 0 ng/mL.

And the Tmax ([2]; male, rat, plasma, po, 3 mg/kg, rat, 3 mg/kg p.o, individual male animals, read-out: Tmax)?
The Tmax was 2 h.

And the half-life ([2]; male, rat, plasma, po, 3 mg/kg, rat, 3 mg/kg p.o, individual male animals, read-out: T½ (converted))?
The half-life was 3.41 h.

And the AUC(0-inf) ([2]; male, rat, plasma, po, 3 mg/kg, rat, 3 mg/kg p.o, mean, summary without unit (Table 12), read-out: AUCinf (mean))?
The AUC(0-inf) was 2200 ng·h/mL.

What about the Cmax ([2]; male, rat, plasma, po, 3 mg/kg, rat, 3 mg/kg p.o, mean, summary without unit (Table 12), read-out: Cmax (mean)) of the same molecule?
Its Cmax is 381 ng/mL.

And the AUC(0-inf) ([2]; male, rat, plasma, po, 3 mg/kg, rat, 3 mg/kg p.o, mean, read-out: AUCinf, Mean)?
Its AUC(0-inf) is 2200 ng·h/mL.

What about the Cmax ([2]; male, rat, plasma, po, 3 mg/kg, rat, 3 mg/kg p.o, mean, read-out: Cmax, Mean) of the same molecule?
Its Cmax is 381 ng/mL.

And the Tmax ([2]; male, rat, plasma, po, 3 mg/kg, rat, 3 mg/kg p.o, mean, read-out: Tmax, Mean)?
The Tmax was 2 h.

What about the half-life ([2]; male, rat, plasma, po, 3 mg/kg, rat, 3 mg/kg p.o, mean, read-out: T½, Mean (converted)) of the same molecule?
The half-life was 2.4 h.

What about the “Fold over IC50 at 24 h” value ([2]; mean blood concentration at 24 h (rat, 3 mg/kg p.o.) divided by whole blood IC50 in ng/ml) of the same molecule?
The value was 0.

And the “Concentration in Blood” value ([2]; rat, 3 mg/kg oral, 0.25 h, individual male animals, 3 mg/kg)?
Its value is 113.6 ng/mL and 57.3 ng/mL.

And the “Concentration in Blood” value ([2]; rat, 3 mg/kg oral, 0.5 h, individual male animals, 3 mg/kg)?
Its value is 165.7 ng/mL and 132.1 ng/mL.

What about the “Concentration in Blood” value ([2]; rat, 3 mg/kg oral, 1 h, individual male animals, 3 mg/kg) of the same molecule?
The value was 295.1 ng/mL and 217.5 ng/mL.

What about the “Concentration in Blood” value ([2]; rat, 3 mg/kg oral, 2 h, individual male animals, 3 mg/kg) of the same molecule?
Its value is 349.9 ng/mL and 536.9 ng/mL and 256.2 ng/mL.

What about the “Concentration in Blood” value ([2]; rat, 3 mg/kg oral, 4 h, individual male animals, 3 mg/kg) of the same molecule?
The value was 179.4 ng/mL and 485.2 ng/mL and 184.9 ng/mL.

And the “Concentration in Blood” value ([2]; rat, 3 mg/kg oral, 6 h, individual male animals, 3 mg/kg)?
Its value is 128.3 ng/mL and 292.2 ng/mL and 125.8 ng/mL.

And the “Concentration in Blood” value ([2]; rat, 3 mg/kg oral, 8 h, individual male animals, 3 mg/kg)?
The value was 72.1 ng/mL and 184.5 ng/mL and 84.7 ng/mL.

What about the “Concentration in Blood” value ([2]; rat, 3 mg/kg oral, 12 h, individual male animals, 3 mg/kg) of the same molecule?
Its value is 36.5 ng/mL and 31.0 ng/mL and 14.5 ng/mL.

What about the “Concentration in Blood” value ([2]; rat, 3 mg/kg oral, 24 h, individual male animals) of the same molecule?
Its value is 0 ng/mL.

What about the AUCinf [2, 4] of the same molecule?
Its AUCinf is 1831.4 ng·h/mL and 3256.1 ng·h/mL and 1505.1 ng·h/mL.

And the Cmax [2, 4]?
Its Cmax is 349.9 ng/mL and 536.9 ng/mL and 256.2 ng/mL.

What about the T½ [2, 4] of the same molecule?
The T½ was 1.80 h and 1.86 h.

What about the “AUCinf (mean)” value ([2]; rat, 3 mg/kg p.o, mean, summary without unit (Table 12), 3 mg/kg, in ng·h/mL) of the same molecule?
Its value is 2198.

What about the Potency in inhibition of DK-PGD2-induced blood eosinophilia [3] of the same molecule?
The Potency in inhibition of DK-PGD2-induced blood eosinophilia was 17 mg/kg.
